Experimental data from patent US4201783A, “Antidepressant substituted hexahydro benzopyrano [3,2-c] pyridines” (Lipha Lyonnaise Industrielle Pharmaceutique, priority 1977, dated 1980).
Where a name gives a salt, the structure may show the parent alone.

Tests used:
ptosis with reserpine = assay: inhibition of reserpine ptosis in Swiss mice (B. Rubin et al.); format: in vivo; conditions: simultaneously with reserpine 5 mg/kg intraperitoneally, ptosis measured at 1, 1.5 and 2 hours; for ED50: Mus musculus, po, read-out: ED50 (dose inhibiting reserpine ptosis by an average of 50%); for ED50 (dose inhibiting reserpine ptosis by an average of 50%): oral
Method: This mood-altering activity can be determined by standard, routine tests well known specialists. […] In Swiss mice, a compound was administered orally simultaneously with reserpine given interperitoneally at a dose of 5 mg/kg. Ptosis measured according to B. Rubin et al. (J. Pharmacol. Exp. […] (3-dimethylamino propylidene-5-dibenzo [a,d] 1,4-cycloheptadiene hydrochloride).

in vivo = conditions: mouse, po
Swiss mice = conditions: oral
[1] = clinical test of the medication containing the active compound of Example 5 A; format: in vivo, human
Source text: The following are observations recorded during a clinical test of the medication containing the active compound of Example 5 A.

[2] = LD50, administered orally, Swiss mice
[3] = Case No. 1, 5 mg daily for 30 days
[4] = Case No. 2, 20 mg daily for 30 days
[5] = Case No. 3, 10 mg daily for 20 days
[6] = Case No. 4, 25 mg daily for 45 days
[7] = Case No. 5, 5 mg daily for 30 days
[8] = Case No. 6, 25 mg daily for 30 days

`CN1CCC23NC(=O)CC(c4c(ccc5ccccc45)O2)C3C1` (centres unmarked) [Example 10, 7a-amino-10-methyl-7a,8,9,10,11,11a-hexahydro[12 H]benzo[f]benzopyrano[3,2-c]pyrid-12-ylacetic acid lactam] gave an ED50 (ptosis with reserpine) of 1.8 mg/kg and an LD50 (in vivo; [2]) of 600 mg/kg.

In the case of `Cc1ccc2c(c1)C1CC(=O)NC3(CCN(C)CC13)O2` (centres unmarked) [Example 7, 4a-amino-28-dimethyl-1,2,3,4,4a,10a-hexahydro[10 H]benzopyrano[3,2-c]pyrid-10-ylacetic acid lactam], the ED50 (ptosis with reserpine) is reported as 3.5 mg/kg and the LD50 (in vivo; [2]) is reported as 1200 mg/kg.

`CN1CCC23Oc4ccc(Cl)cc4C(CC(=O)N2C)C3C1` (centres unmarked) [Example 36, 8-chloro-2-methyl-4a-methylamino-1,2,3,4,4a,10a-hexahydro[10 H]benzopyrano[3,2-c]pyrid-10-ylacetic acid lactam] showed an ED50 (ptosis with reserpine) of 0.7 mg/kg and an LD50 (in vivo; [2]) of 600 mg/kg.

With `CCOC(=O)N1CCC23NC(=O)CC(c4cc(Cl)ccc4O2)C3C1` (centres unmarked) [Example 27, 4a-amino-8-chloro-2-ethoxycarbonyl-1,2,3,4,4a,10a-hexahydro[10 H]benzopyrano[3,2-c]pyrid-10-ylacetic acid lactam] the ED50 (ptosis with reserpine) was 0.37 mg/kg and the LD50 (in vivo) was > 1600 mg/kg.

In the case of `COC(=O)N1CCC23NC(=O)CC(c4cc(Cl)ccc4O2)C3C1` (centres unmarked) [Example 28, 4a-amino-8-chloro-2-methoxycarbonyl-1,2,3,4,4a,10a-hexahydro[10 H]benzopyrano[3,2-c]pyrid-10-ylacetic acid lactam], the ED50 (ptosis with reserpine) is reported as 0.25 mg/kg and the LD50 (in vivo) is reported as 1100 mg/kg.

Compound `CN(C)CCCN1c2ccccc2CCc2ccccc21` [Imipramine, N-(3-dimethylaminopropyl) iminodibenzyl hydrochloride, reference compound] has an ED50 (ptosis with reserpine) of 2.9 mg/kg.

For `CN1CCC23NC(=O)CC(c4ccccc4O2)C3C1` (single isomer, unassigned) [Example 1 A, 4a-amino-2-methyl-1,2,3,4,4a,10a-hexahydro [10 H] benzopyrano-[3,2-c]pyrid-10-yl acetic acid lactam], the “ED50 (dose inhibiting reserpine ptosis by an average of 50%)” value (ptosis with reserpine) was 6 mg/kg and the “LD50, administered orally” value (Swiss mice) was 2,700 mg/kg.

`CN(C)CCC=C1c2ccccc2CCc2ccccc21` [Amitriphthyline, 3-dimethylamino propylidene-5-dibenzo [a,d] 1,4-cycloheptadiene hydrochloride, reference compound] showed an ED50 (ptosis with reserpine) of 10 mg/kg and an LD50 (in vivo) of 150 mg/kg.

For `CN1CCC23NC(=O)CC(c4ccccc4O2)C3C1` (single isomer, unassigned) [Example 1 B, 4a-amino-2-methyl-1,2,3,4,4a,10a-hexahydro [10 H] benzopyrano-[3,2-c]pyrid-10-yl acetic acid lactam], the “ED50 (dose inhibiting reserpine ptosis by an average of 50%)” value (ptosis with reserpine) was 24 mg/kg and the “LD50, administered orally” value (Swiss mice) was 600 mg/kg.

In the case of `CN1CCC23NC(=O)CC(c4cc(F)ccc4O2)C3C1` (centres unmarked) [Example 8, 4a-amino-8-fluoro-2-methyl-1,2,3,4,4a,10a-hexahydro[10 H]benzopyrano[3,2-c]pyrid-10-ylacetic acid lactam], the ED50 (ptosis with reserpine) is reported as 1 mg/kg and the LD50 (in vivo; [2]) is reported as 1080 mg/kg.

In the case of `CN1CCC23NC(=O)CC(c4cc(Cl)ccc4O2)C3C1` (single isomer, unassigned) [Example 5 B, 4a-amino-8-chloro-2-methyl-1,2,3,4,4a,10a-hexahydro[10 H]benzopyrano[3,2c]pyrid-10-ylacetic acid lactam], the “ED50 (dose inhibiting reserpine ptosis by an average of 50%)” value (ptosis with reserpine) is reported as 11 mg/kg.

In the case of `CC(=O)N1CCC23NC(=O)CC(c4ccccc4O2)C3C1` (centres unmarked) [Example 9, 4a-amino-2-acetyl-1,2,3,4,4a,10a-hexahydro[10 H]benzopyrano[3,2-c]pyrid-10-ylacetic acid lactam], the ED50 (ptosis with reserpine) is reported as 5 mg/kg and the LD50 (in vivo; [2]) is reported as > 3200 mg/kg.

In the case of `COc1ccc2c(c1)C1CC(=O)NC3(CCN(C)CC13)O2` (single isomer, unassigned) [Example 18, 4a-amino-8-methoxy-2-methyl-1,2,3,4,4a,10a-hexahydro[10 H]benzopyrano[3,2-c]pyrid-10-ylacetic acid lactam], the ED50 (ptosis with reserpine) is reported as 0.67 mg/kg and the LD50 (in vivo; [2]) is reported as 1200 mg/kg.

In the case of `CN1CCC23NC(=O)CC(c4cc([N+](=O)[O-])ccc4O2)C3C1` (centres unmarked) [Example 15, 4a-amino-8-nitro-2-methyl-1,2,3,4,4a,10a-hexahydro[10 H]benzopyrano[3,2-c]pyrid-10-ylacetic acid lactam], the ED50 (ptosis with reserpine) is reported as 0.6 mg/kg and the LD50 (in vivo; [2]) is reported as 2470 mg/kg.

In the case of `CN1CCC23NC(=O)CC(c4cc(Br)ccc4O2)C3C1` (centres unmarked) [Example 6, 4a-amino-8-bromo-2-methyl-1,2,3,4,4a,10a-hexahydro[10 H]benzopyrano[3,2-c]pyrid-10-ylacetic acid lactam], the ED50 (ptosis with reserpine) is reported as 0.1 mg/kg and the LD50 (in vivo; [2]) is reported as 720 mg/kg.

For `CN1CCC23NC(=O)CC(c4cc(Cl)ccc4O2)C3C1` (single isomer, unassigned) [Example 5 A, 4a-amino-8-chloro-2-methyl-1,2,3,4,4a,10a-hexahydro[10 H]benzopyrano[3,2c]pyrid-10-ylacetic acid lactam], the “ED50 (dose inhibiting reserpine ptosis by an average of 50%)” value (ptosis with reserpine) was 0.04 mg/kg, the Activity ([1]; Case No. 1, pre-senile depression, 5 mg daily for 30 days, with NOZINAN-SUREPTIL) was “Weight gain. Improvement of mood and sociability” and the “Tolerance, biological” value [1, 3] was “N.A.D”. The “Tolerance, clinical” value [1, 3] was “N.A.D”, the Activity ([1]; Case No. 2, post-neuroleptic depression with schizophrenia, 20 mg daily for 30 days, with NOZINAN-ARTANE-GARDENAL) was “Weight gain. Improvement of mood and sleep. Reduced anxiety. Relief of hypochondriac complaints” and the “Tolerance, biological” value [1, 4] was “N.A.D”. For the same compound, the “Tolerance, clinical” value [1, 4] was “N.A.D”, the Activity ([1]; Case No. 3, serious hypochondriac depressive syndrome, 10 mg daily for 20 days, with MEPRONIZINE) was “The patient was less preoccupied with their body. Decrease of compulsive washing. Improvement of social behavior” and the “Tolerance, biological” value [1, 5] was “N.A.D”. For the same compound, the “Tolerance, clinical” value [1, 5] was “N.A.D”, the Activity ([1]; Case No. 4, melancholic depressive relapse, 25 mg daily for 45 days, with NOZINAN 25 mg) was “Improvement of mood. Less pessimistic attitude. Less frequent crying. Less pronounced feeling of guilt” and the “Tolerance, biological” value [1, 6] was “N.A.D”. For the same compound, the “Tolerance, clinical” value [1, 6] was “N.A.D”, the Activity ([1]; Case No. 5, depressive syndrome in an alcoholic of the melancholic type, 5 mg daily for 30 days, with vitamins, NOZINAN (50 mg), ARTANE 5) was “Improvement of mood. Less frequent crying. Improved appetite” and the “Tolerance, biological” value [1, 7] was “N.A.D”. The “Tolerance, clinical” value [1, 7] was “slight dizziness and nausea”, the Activity ([1]; Case No. 6, hypochondriac delirium with anxiety, 25 mg daily for 30 days, with ARTANE 10 mg […]) was “Decrease of hypochondriac complaints. Patient less irritable and apprehensive” and the “Tolerance, biological” value [1, 8] was “N.A.D”. For the same compound, the “Tolerance, clinical” value [1, 8] was “slight vertigo”.
